Experimental data from patent US9546175B2, “Organic compounds” (Intra-Cellular Therapies, Inc., priority 2014, dated 2017).

Experiment: Pharmacokinetic analysis in mice, plasma and brain levels by LC-MS/MS
Type: in vivo
Conditions: mouse, male C57BL/6 mice, 10 mg/kg oral (PO), 0.25-2 h, read-out: B/P ratio (Brain AUC(0-2h)/Plasma AUC(0-2h))
Description: Animals: Male, C57BL/6 mice (Jackson Labs, 25-30 g in body weight) are provided by Jackson Laboratories. Up to five mice are housed per cage and are maintained under a 12 hour light/dark cycle with access to food and water ad libitum. All procedures for the handling and use of animals follow the guidelines of the Institutional Animal Care and Use Committee (IACUC) of Columbia University, in accordance with NIH guidelines. Eight week-old mice (N=3/dose level or treatment group) are used in the experiments.
Experimental Treatment: Compounds: Selected Compounds of the Invention are evaluated in the present study. […]
Compound Preparation: Powdered stocks of the test compound(s) are measured and dissolved in 3% 1N HCl, 5% Labrasol and 92% of 5% TPGS in 0.05M Citrate buffer (CB, pH 4.0). […]
Treatment of Animals: Mice (N=3 mice/dose/time point) receive a 10 mg/kg oral (PO) dose of the test compound(s) at time 0. […] Plasma and brain tissue samples are processed and analyzed by the analytical group using LC-MS/MS methods, as described below. […]
Each tube is vortexed, then centrifuged for 20 min at 15000 rpm using a Tomy benchtop centrifuge at 4° C., Standard is an internal standard used for LC-MS/MS quantitation. […]
Each compound is detected and quantified using Multiple Reaction Monitoring (MRM) of positive electrospray mode with a Waters QuattroMicro™ mass spectrometry system. […]

Compound | Kp
CC(C)Cn1c(=O)n(C)c(=O)c2c(Nc3ccccc3)n(Cc3ccc(S(N)(=O)=O)cc3)nc21 [Example 1, 4-((7-Isobutyl-5-methyl-4,6-dioxo-3-(phenylamino)-4,5,6,7-tetrahydropyrazolo[3,4-d]pyrimidin-2-yl)methyl)benzenesulfonamide] | ≤ 0.05
CC(C)Cn1c(=O)n(C)c(=O)c2c(Nc3ccccc3)n(Cc3ccc(C(=O)O)cc3)nc21 [Example 2, 4-((7-isobutyl-5-methyl-4,6-dioxo-3-(phenylamino)-4,5,6,7-tetrahydropyrazolo[3,4-d]pyrimidin-2-yl)methyl)benzoic acid] | ≤ 0.05
